From patent US20190307833A1, “TREATMENT OF AGE-RELATED MACULAR DEGENERATION WITH NEUROTROPHIC PEPTIDERGIC COMPOUND” (The Research Foundation for Mental Hygiene, Inc., priority 2018, published 2019)
*1 amine or outer side, *2 acyl side, *3 side chain or, on linkers, in order; H or OH if unused. Where a SMILES comes first, the peptide text is derived from it. [ ]: non-standard residue; d: D form. X1 = O=C(C1(N[*:1])C2CC3CC(C2)CC1C3)[*:2]

Experiments:
[1] = Stability in artificial gastric juice; type: in vitro ADME; conditions: simulated gastric fluid; during 30 minutes; read-out: stable in artificial gastric juice
Protocol: (§1) P021 is quite stable in artificial gastric juice (˜90% during 30 minutes) and in artificial intestinal juice (˜95% during 120 minutes).

[2] = Stability in artificial intestinal juice; type: in vitro ADME; conditions: simulated intestinal fluid; during 120 minutes; read-out: stable in artificial intestinal juice
Protocol: as §1

[3] = BBB studies through a commercial service (APREDICA)
[4] = tested on: retina of aged Fisher rats; experiment: Retinal morphology by H & E staining in aged Fisher rats; type: in vivo, rat; conditions: 500 nmoles/kg/day by gavage, 3 months
Protocol: (§2) Female aged (19˜21 months) Fisher rats (n=7) were given P021 per os by gavage (10 ml/kg body weight) once a day for 88 days. The dose of P021 was 500 nanomoles (289.15 microgram)/kg body weight daily. As controls, a second group of aged (19˜21 months) female rats (n=7) and a group of young adult female rats (2-3 months, n=7) were treated identically, but with normal saline (vehicle) only (FIG. 1A). Administration of vehicle and test compound was done at 7-9 AM daily in the pretesting phase.
(§3) The animals were anesthetized by using an overdose of avertin and then were transcardially perfused by using 0.1 M phosphate-buffered saline (PBS). Eyeballs were dissected out from the carcasses, immersion-fixed for 24 hours in 4% paraformaldehyde at 4° C., and then transferred to 70% alcohol for storage; in the case of mice, the eyeballs were prefixed by injecting 4% paraformaldehyde, followed by removal from the carcasses and immersion fixation as above. After the cornea and lens of the left eyes were removed, the remaining eye cup was embedded in paraffin with the orientation parallel to the optic nerve in longitudinal position. In all cases, 5-μm serial sections were cut by using a rotary microtome and were mounted on Superfrost Plus slides.
(§4) Every 25th retinal section was deparaffinized and subjected to hematoxylin and eosin (H & E) staining to evaluate the morphology. The H & E staining images were captured with a light microscope using 2×, 40×, and 100× objective lenses. Because there is no significant difference between the ⅕th to the ⅓rd of the retina from the optic nerve head and the most peripheral part, the ⅕^th position of the retina from the optic nerve to the most peripheral part of the retina was chosen as the “central,” and the most peripheral part of the retina as “peripheral.” Rows of the outer nuclear layer (ONL) and the inner nuclear layer (INL) of the retina in each group (every 25th section, 3-5 sections per rat or mouse) were manually counted in three columns per image by using a 40× or, where necessary, a higher magnification objective. The thicknesses of the ONL and INL of the central and peripheral retina in each group (every 25th section from the optic nerve head, 2-3 sections per rat or mouse) were measured and quantified by using the ImageJ/NIH image analysis system.

[5] = tested on: RPE of aged Fisher rats; experiment: Auto-fluorescence of RPE lipofuscin granules and deposits in aged Fisher rats; type: in vivo, rat; conditions: 500 nmoles/kg/day by gavage, 3 months
Protocol: as §2
(§5) The animals were anesthetized by using an overdose of avertin and then were transcardially perfused by using 0.1 M phosphate-buffered saline (PBS). Eyeballs were dissected out from the carcasses, immersion-fixed for 24 hours in 4% paraformaldehyde at 4° C., and then transferred to 70% alcohol for storage; in the case of mice, the eyeballs were prefixed by injecting 4% paraformaldehyde, followed by removal from the carcasses and immersion fixation as above. […]
(§6) Paraffin sections were deparaffinized, rehydrated, and covered with coverslips with 0.1M PBS and then photographed by using a confocal microscope with red channel (λex=543, λem=590/50), as described previously. […] For quantification, the number of deposits between RPE and Cho in each section was manually counted by using a 20× or, where necessary, a higher magnification objective.

[6] = tested on: retina of aged 3×Tg-AD mice; experiment: Retinal morphology by H & E staining in aged 3×Tg-AD mice; type: in vivo, mouse; conditions: 60 nmoles/g feed from 3 to 21 months of age
Text: (§7) At approximately 3 months of age, the female wild type and 3×Tg-AD mice were divided into five groups (n=6-7 mice per group) (FIG. 3A): (1) Wild type mice, age 3 months, without treatment (WT-3m); (2) 3×Tg-AD mice, age 3 months, without treatment (3×Tg-3m); (3) Wild type mice, age 3 months, treated with vehicle feed without P021 until the age of 21 months (WT-21m/Veh); (4) 3×Tg-AD-mice, age 3 months, treated with vehicle feed without P021 until the age of 21 months (3×Tg-21m/Veh); and (5) 3×Tg-AD-mice, age 3 months, treated with 60 nmol P021/g feed till the age of 21 months (3×Tg-21m/P021). The first two groups were the starting point and were employed as the matched young controls. P021 was formulated in the feed by Research Diets (New Brunswick, N.J., USA). Food consumption and body weight were recorded every 2 weeks and every month, respectively. The average mouse food consumption was ˜2.7 g feed/day.
as §3, §4

[7] = tested on: RPE of aged 3×Tg-AD mice; experiment: Auto-fluorescence of RPE lipofuscin granules and deposits in aged 3×Tg-AD mice; type: in vivo, mouse
Text: as §7, §3, §6

[8] = tested on: Iba-1; experiment: Iba-1 immunofluorescence (microgliosis) in retina of aged 3×Tg-AD mice; type: in vivo, mouse; conditions: 60 nmoles/g feed from 3 to 21 months of age
Text: as §7, with “feed/day. […]” for “feed/day.”
(§8) Paraffin sections were deparaffinized, rehydrated, and subjected to antigen retrieval by boiling for 20 minutes in 10 mM sodium citrate solution (pH 6.0). […] The area to be analyzed was selected and converted to grey scale, the threshold (Yen mode) was adjusted, and the area percentage of positive staining was measured for each section by using the NIH Image J software package. […]

[9] = tested on: Iba-1; experiment: Iba-1 immunofluorescence (microgliosis) in retina of aged rats; type: in vivo, rat; conditions: 500 nmoles/kg/day by gavage, 3 months
Protocol: as §2, §3
as §8, with “6.0). Sections were then washed three times in 10 mM PBS for 15 minutes each and incubated in 0.3% Triton X-100 for 30 minutes. The sections were again washed in 10 mM PBS (15 minutes, three times each) and blocked in blocking solution (5% normal goat serum containing 0.1% Triton X-100 and 0.05% Tween 20 in PBS) for 45 minutes.” for “6.0).”

[10] = tested on: GFAP; experiment: GFAP immunofluorescence (astrogliosis) in retina of aged 3×Tg-AD mice; type: in vivo, mouse; conditions: 60 nmoles/g feed from 3 to 21 months of age
Text: as §7, §3, §8

[11] = tested on: GFAP; experiment: GFAP immunofluorescence (astrogliosis) in retina of aged rats; type: in vivo, rat
Protocol: as §2, §5, §8

[12] = tested on: total tau, P-tau, Aβ/APP; experiment: Tau, phosphorylated tau and Aβ/APP immunofluorescence in retina of aged rats; type: in vivo, rat
Protocol: as §2, §3
(§9) Paraffin sections were deparaffinized, rehydrated, and subjected to antigen retrieval by boiling for 20 minutes in 10 mM sodium citrate solution (pH 6.0). Sections were then washed three times in 10 mM PBS for 15 minutes each and incubated in 0.3% Triton X-100 for 30 minutes. The sections were again washed in 10 mM PBS (15 minutes, three times each) and blocked in blocking solution (5% normal goat serum containing 0.1% Triton X-100 and 0.05% Tween 20 in PBS) for 45 minutes. Sections were then incubated overnight at 4° C. with the corresponding primary antibodies (see Table 1 for antibodies used in this study) diluted in the same blocking solution. After being washed three times for 15 minutes each with 10 mM PBS, sections were incubated with Alexa-Fluor 488-conjugated goat anti-mouse or anti-rabbit IgG secondary antibodies (1:1000) in 10 mM PBS with 0.05% Tween 20 for 2 hours at room temperature. Sections were subsequently washed one time and incubated with To-Pro (1:1000) for 15 minutes. After being washed three times for 15 minutes, sections were mounted and cover-slipped by using ProLong Gold anti-fade reagent. The absence of primary antibody control staining was included in each experiment as a negative control. Double immunofluorescence and To-Pro images were captured at equal camera exposure (for each antibody staining) with a Nikon EZ-C1 laser confocal imaging system. The area to be analyzed was selected and converted to grey scale, the threshold (Yen mode) was adjusted, and the area percentage of positive staining was measured for each section by using the NIH Image J software package. The staining area was averaged from 2-3 independent sections of each eye (n=5-7 different animals per group).

[13] = tested on: total tau, P-tau, Aβ/APP; experiment: Tau, phosphorylated tau and Aβ/APP immunofluorescence in retina and optic nerve of aged 3×Tg-AD mice; type: in vivo, mouse
Text: as §7, §3, §9

[14] = tested on: VEGF; experiment: VEGF immunofluorescence in retina and optic nerve of aged 3×Tg-AD mice; type: in vivo, mouse
Text: as §7, §3, §8

[15] = cited from earlier work
[16] = tested on: rat and mouse models of AD; conditions: cited from earlier work
[17] = chronic oral treatment, aged rats and mice; cited from earlier work
[18] = 60 nmoles/g feed from 3 to 21 months of age, auto-fluorescence
[19] = 3×Tg-AD mice, 60 nmoles/g feed from 3 to 21 months of age

## CC(=O)N[C@@H](CC(=O)O)C(=O)NCC(=O)NCC(=O)N[C@@H](CC(C)C)C(=O)NC1(C(N)=O)C2CC3CC(C2)CC1C3 (stereo partly shown) [P021, Ac-DGGL^AG-NH2] (Ac-DGGL[X1]-NH2)
[1]
  remaining at 0.5 h: ~90%
[2]
  remaining at 2 h: ~95%
[3]
  crossing of the BBB: a sufficient amount of P021 crossed the BBB
[4]
  RPE vacuolization and atrophy: no apparent abnormalities were observed
  arrangement of apical microvilli (AM) in RPE: showed improvement in the arrangement of AM
  decrease in rows and thickness of ONL, central vs peripheral retina: prevented these pathological changes more effectively in the central retina
  outer retinal folds and rosette-like structures in the central retina: No abnormal structure like this was observed
  rows and thickness of INL in the central retina: no detectable effect
  rows and thickness of ONL, P021-treated aged rats vs young rats: no significant difference between ˜5- to 6-month-old rats and P021-treated ˜22- to 24-month-old rats
  rows of INL in the peripheral retina: showed a clear trend to rescue the number of rows
[5]
  lipofuscin granules and deposition number between RPE and Cho: obviously decreased
[6]
  decrease in rows and thickness of INL in the central retina: chronic treatment with P021 prevented these changes
  decrease in rows and thickness of ONL in the central retina: prevented
  decrease in rows and thickness of ONL in the peripheral retina: not in the peripheral retina
  extension of ONL nuclei across the OPL into the INL, central retina: this pathology was prevented
  prevention of changes in rows and thickness of INL in the peripheral retina: did not reach significance
  rescue of INL thickness in the central retina: did not reach statistical significance
[7]; [18]
  deposits between the RPE and Cho: significantly reduced
  lipofuscin granules in RPE: some small lipofuscin granules could still be observed
[7]; P021 administered in the diet
  RPE and BM abnormalities (AMD features) overall: Most of these AMD features were prevented
[8]
  Iba-1 immunostaining (area percentage) in the peripheral retina: decreased in 3×Tg-21 m/P021 mice to the levels in WT-3 m/Veh and 3×Tg-3 m/Veh mice
  distribution of Iba-1-positive staining in the central retina: Iba-1-positive staining was only observed in the GCL
[9]
  relative Iba-1 immunostaining from the NFL to the OS, central and peripheral retinas: dramatically reduced
[9]; especially central retina
  Iba-1 staining from the ONL to the OS: no staining was found from the ONL to the OS
[9]; vs vehicle aged rats
  localization of Iba-1 from the NFL to the OPL: decrease in localization from the NFL to the OPL
[10]
  area percentage of GFAP from the NFL to the ONL in the central retina: reduced by P021 treatment to the levels in WT-3m/Veh and 3×Tg-3 m/Veh mice
  distribution of GFAP-positive staining: limited to the NFL and GCL
[10]; similar trend
  area percentage of GFAP in the peripheral retina: did not reach statistical significance
[11]
  area percentage of GFAP-positive staining, central and peripheral retinas: drastically elevated in the central and peripheral retinas in ˜22- to 24-month-old/Veh rats as compared to ˜5- to 6-month-old/Veh rats and ˜22- to 24-month-old/P021 rats
[11]; 500 nmoles/kg/day by gavage, 3 months, vs vehicle aged rats
  GFAP staining: reduced very much
[12]; aged rats, 500 nmoles/kg/day by gavage, 3 months
  tau and Aβ pathologies in the retina: prevented the increase in tau and Aβ pathologies
[12]; retinas of aged rats
  Aβ/APP immunoreactivity: prevents increase of Aβ/APP immunoreactivity
  tau hyperphosphorylation at Ser-202/Thr-205 (AT8 site): prevents increase in the expression of tau hyperphosphorylation at Ser-202/Thr-205
  tau hyperphosphorylation at Ser-396/404 (PHF-1 site): prevents increase in the expression of tau hyperphosphorylation at Ser-396/404
  total tau immunoreactivity (R134d): prevents the increase in total tau immunoreactivity
[13]; [19]
  tau and Aβ pathologies in the retina: prevented the increase in tau and Aβ pathologies
[13]; retinas of aged mice
  Aβ/APP immunoreactivity: prevents increase of Aβ/APP immunoreactivity
  tau hyperphosphorylation at Ser-202/Thr-205 (AT8 site): prevents increase in the expression of tau hyperphosphorylation at Ser-202/Thr-205
  tau hyperphosphorylation at Ser-396/404 (PHF-1 site): prevents increase in the expression of tau hyperphosphorylation at Ser-396/404
  total tau immunoreactivity (R134d): prevents the increase in total tau immunoreactivity
[14]; [19]
  VEGF staining in the optic nerve: the size of the staining patch was decreased
  localization of VEGF-positive spots in the retina: limited mainly to the GFL to the IPL
[14]; aged mice
  expression of VEGF in retinas: prevents increase in the expression of VEGF
[15]
  oral bioavailability: orally bioavailable
[16]
  cognitive impairment, synaptic deficit, neuroinflammation, tau and Aβ pathologies: rescue cognitive impairment, synaptic deficit, neuroinflammation, and tau and Aβ pathologies
[17]
  general physical state (side effects): did not reveal any worsening in general physical state
